Results taken from patent publication US8815902B2, “Tetrahydroquinoline amide M1 receptor positive allosteric modulators” (Merck Sharp & Dohme Corp., priority 2010, dated 2014).

molecular target: T1, acetylcholine muscarinic M1 receptor (hM1) (Homo sapiens, UniProt P11229); assay: muscarinic FLIPR assay: intracellular calcium in CHOnfat/hM1 cells, potentiation of EC20 acetylcholine; format: cell-based; details: Table 1, EC20 acetylcholine (3 nM final), read-out: H Pot.
T1 construct: expressed in transfected cells; host or cells: CHOnfat cells (CHO, NFAT reporter background), Geneticin-selected; b186 also calls them CHOK1/hM1
T1 sequence (P11229 1-460): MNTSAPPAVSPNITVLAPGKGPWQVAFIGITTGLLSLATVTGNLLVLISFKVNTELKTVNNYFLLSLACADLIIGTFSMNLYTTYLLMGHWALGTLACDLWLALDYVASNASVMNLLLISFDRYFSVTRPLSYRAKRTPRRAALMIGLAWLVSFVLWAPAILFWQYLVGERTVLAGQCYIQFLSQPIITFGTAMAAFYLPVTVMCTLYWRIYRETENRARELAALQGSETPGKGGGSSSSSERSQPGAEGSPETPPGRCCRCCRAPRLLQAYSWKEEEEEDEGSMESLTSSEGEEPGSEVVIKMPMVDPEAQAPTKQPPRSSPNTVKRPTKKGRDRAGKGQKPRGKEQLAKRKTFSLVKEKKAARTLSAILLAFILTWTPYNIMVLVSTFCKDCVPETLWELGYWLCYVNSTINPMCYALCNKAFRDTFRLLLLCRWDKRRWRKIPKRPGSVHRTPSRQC
Experimental: The assay studies the effect of one or several concentrations of test compounds on basal or acetylcholine-stimulated Ca^2+ levels using FLIPR.
Compounds are prepared and subjected to a preincubation period of 4 min. Thereafter, a single EC20 concentration of acetylcholine is added to each well (3 nM final). The intracellular Ca^2+ level of each sample is measured and compared to an acetylcholine control to determine any modulatory activity.
Cells: CHOnfat/hM1, hM2, hM3 or hM4 cells are plated 24 hr before the assay at a density of 18,000 cells/well (100 μL) in a 384 well plate. CHOnfat/hM1 and CHOnfat/hM3 Growth Medium: 90% DMEM (Hi Glucose); 10% HI FBS; 2 mM L-glutamine; 0.1 mM NEAA; Pen-Strep; and 1 mg/ml Geneticin, are added. For M2Gqi5CHOnfat and M4Gqi5CHOnfat cells, an additional 600 ug/ml hygromycin is added.
Equipment: 384 well plate, 120 μL addition plate; 96-well Whatman 2 ml Uniplate Incubator, 37° C., 5% CO2; Skatron EMBLA-384 Plate Washer; Multimek Pipetting System; Genesis Freedom 200 System; Mosquito System; Temo Nanolitre Pipetting System; and FLIPR^384 Fluorometric Imaging Plate Reader System are used.
Buffers. Assay Buffer: Hanks Balanced Salt Solution, with 20 mM Hepes, 2.5 mM Probenecid (Sigma P-8761) first dissolved in 1 N NaOH, 1% Bovine Serum Albumin (Sigma A-9647). Dye Loading Buffer: Assay Buffer plus 1% Fetal Bovine Serum and Fluo-4AM/Pluronic Acid Mixture. 2 mM Fluo-4AM ester stock in DMSO (Molecular Probes F-14202) Concentration of 2 μM in buffer for a final concentration of 1 μM in Assay. 20% Pluronic Acid Solution stock, with concentration of 0.04% in Buffer, 0.02% in Assay.
65 μL of 2 mM Fluo-4AM are mixed with 130 μL of 20% Pluronic Acid. The resulting solution and 650 μL FBS is added to the assay buffer for a total volume of 65 mL. Positive Controls: 4-Br-A23187: 10 mM in DMSO; final concentration 10 μM. Acetylcholine: 10 mM in water, working stock at both 20 μM and 30 μM in assay buffer, final concentration of 10 μM. This is used to check the maximum stimulation of the CHOK1/hM1 cells. 20 μM (2×) acetylcholine is added in the preincubation part of the assay, and the 30 μM (3×) stock is added in the second part. (EC20) Acetylcholine: 10 mM in water, working stock of 9 nM (3×), and final concentration in assay is 3 nM. This is used after the preincubation with test compounds. Addition of the EC20 Acetylcholine to each well with a test compound will ascertain any modulator activity. 24 wells contain 3 nM Acetylcholine alone as a control.
Screening Plate Compounds are titrated in 96-well plates (columns 2-11), 100% DMSO, started at a concentration of 15 mM (150× stock concentration), and 3-fold serial dilutions using Genesis Freedom200 System. Four 96-well plates are combined into a 384-well plate using Mosquito Nanolitre Pipetting System by transferring 1 μl of serial diluted compounds to each well, and 1 mM acetylcholine (100× stock concentration) were added as a control. Using Temo, 49 μl assay buffer is added to each well of the 384-well plate right before assay.
In a 96-well Whatman 2 ml Uniplate, 9 nM Acetylcholine (3×) is pipetted into wells corresponding to the screening compounds, and into control wells. The 30 μM acetylcholine control (3×) is added into control wells, and the 3× agonist plate is transferred into a 384 well plate.
Cells are washed three times with 100 μL of buffer, leaving 30 μL of buffer in each well. Using Multimek, 30 μL of Dye Loading Buffer is added into each well and incubated at 37° C., 5% CO2 for up to one hr.
After 60 min, the cells are washed three times with 100 μL of buffer, leaving 30 μL of buffer in each well. The cell plate, screening plate, and agonist addition plates are placed on the platform in the FLIPR and the door closed. A signal test to check background fluorescence and basal fluorescence signal is performed. Laser intensity is adjusted if necessary. […]

Structure (SMILES)	EC50 [nM]
O=C(N[C@H]1CCCC[C@@H]1O)c1cc(Cc2ccc(Cl)nc2)c2c(n1)CCCC2 [Compound 7]	129
COc1ccc(-c2ccc(Cc3cc(C(=O)N[C@H]4CCCC[C@@H]4O)nc4c3CCCC4)cn2)cn1 [Compound 8]	18
O=C(N[C@H]1CCCC[C@@H]1O)c1cc(Cc2ccc(-c3cccnc3)nc2)c2c(n1)CCCC2 [Compound 9]	15
O=C(N[C@H]1CCCC[C@@H]1O)c1cc(Cc2ccc(-c3ccc(F)nc3)nc2)c2c(n1)CCCC2 [Compound 10]	36
O=C(N[C@H]1CCCC[C@@H]1O)c1cc(Cc2ccc(-c3ccccc3)nc2)c2c(n1)CCCC2 [Compound 11]	26
COc1cc(Cc2cc(C(=O)N[C@H]3CCOC[C@@H]3O)nc3c2CCCC3)ccn1 [Compound 12]	120
O=C(NC1CCOCC1O)c1cc(Cc2ccn3ccnc3c2)c2c(n1)CCCC2 (stereo not drawn) [Compound 13]	80
O=C(N[C@H]1CCOC[C@@H]1O)c1cc(Cc2ccnc3ccccc23)c2c(n1)CCCC2 [Compound 14]	33
O=C(N[C@H]1CCOC[C@@H]1O)c1cc(Cc2cnc3ccccc3c2)c2c(n1)CCCC2 [Compound 15]	11
O=C(N[C@H]1CCOC[C@@H]1O)c1cc(Cc2ccc(-c3cccnc3)nc2)c2c(n1)CCCC2 [Compound 16]	11
O=C(N[C@H]1CCOC[C@@H]1O)c1cc(Cc2ccc(-c3ccc(F)nc3)nc2)c2c(n1)CCCC2 [Compound 17]	15
COc1cncc(-c2ccc(Cc3cc(C(=O)N[C@H]4CCOC[C@@H]4O)nc4c3CCCC4)cn2)c1 [Compound 18]	7
O=C(N[C@H]1CCOC[C@@H]1O)c1cc(Cc2ccc(-c3cncc(F)c3)nc2)c2c(n1)CCCC2 [Compound 19]	23
Cc1ccc(-c2ccc(Cc3cc(C(=O)N[C@H]4CCOC[C@@H]4O)nc4c3CCCC4)cn2)cn1 [Compound 20]	7
Cc1cncc(-c2ccc(Cc3cc(C(=O)N[C@H]4CCOC[C@@H]4O)nc4c3CCCC4)cn2)c1 [Compound 21]	6
COc1ccc(-c2ccc(Cc3cc(C(=O)N[C@H]4CCOC[C@@H]4O)nc4c3CCCC4)cn2)cn1 [Compound 22]	17
CC(C)(C)OC(=O)N1CC=C(Cc2cc(C(=O)N[C@H]3CCOC[C@@H]3O)nc3c2CCCC3)CC1 [Compound 23]	620
CC(=O)N1CCC(Cc2cc(C(=O)N[C@H]3CCOC[C@@H]3O)nc3c2CCCC3)CC1 [Compound 24]	2240

same assay, conditions: Table 2, EC20 acetylcholine (3 nM final), read-out: M1 IP (inflection point)

Structure (SMILES)	EC50 [nM]
O=C(N[C@H]1CCOC[C@@H]1O)c1cc(Cc2ccc(Cl)nc2)c2c(n1)CCCC2 [Example 1, 1,5-Anhydro-3[({4-[(6-chloropyridin-3-yl)methyl]-5,6,7,8-tetrahydroquinolin-2-yl}carbonyl)amino]-2,3-dideoxy-L-threo-pentitol]	102
CSc1ccc(Cc2cc(C(=O)N[C@H]3CCCC[C@@H]3O)nc3c2CCCC3)cn1 [Example 2, N-[(1S,2S)-2-Hydroxycyclohexyl]-4-{[6-(methylsulfanyl)pyridin-3-yl]methyl}-5,6,7,8-tetrahydroquinoline-2-carboxamide]	88
COc1ccc(Cc2cc(C(=O)N[C@H]3CCOC[C@@H]3O)nc3c2CCCC3)cn1 [Example 3, 1,5-Anhydro-2,3-dideoxy-3-[({4-[(6-methoxypyridin-3-yl)methyl]-5,6,7,8-tetrahydroquinolin-2-yl}carbonyl)amino]-L-threo-pentitol]	98
CC(=O)N1CC=C(Cc2cc(C(=O)N[C@H]3CCOC[C@@H]3O)nc3c2CCCC3)CC1 [Example 4, 3-[{(4-[(1-Acetyl-1,2,3,6-tetrahydropyridin-4-yl)methyl]-5,6,7,8-tetrahydroquinolin-2-yl}carbonyl)amino]-1,5-anhydro-2,3-dideoxy-L-threo-pentitol]	654
Cn1cc(-c2ccc(Cc3cc(C(=O)N[C@H]4CCOC[C@@H]4O)nc4c3CCCC4)cn2)cn1 [Example 5, 1,5-Anhydro-2,3-dideoxy-3-{[(4-{[6-(1-methyl-1H-pyrazol-4-yl)pyridine-3-yl]methyl}-5,6,7,8-tetrahydroquinolin-2-yl)carbonyl}amino]-L-threo-pentitol]	4
O=C(N[C@H]1CCOC[C@@H]1O)c1cc(Cc2ccc(-c3cnccn3)nc2)c2c(n1)CCCC2 [Example 6, 1,5-Anhydro-2,3-dideoxy-3-{[(4-{[6-(pyrazin-2-yl)pyridine-3-yl]methyl}-5,6,7,8-tetrahydroquinolin-2-yl)carbonyl]amino}-L-threo-pentitol]	115
